Results taken from patent US12077503B2, “Substituted cyclic amides and their use as herbicides” (FMC CORPORATION, priority 2015, dated 2024).

How the values were obtained:
Type in all cases: in vivo
[1] = test system: barnyardgrass (Echinochloa crus-galli); experiment: Test G Pre-Emergence Protocol; conditions: Echinochloa crus-galli, pre-emergence, 312 h, evaluated after 13 days; for pest or weed control at 15.625 g/ha: 15.625 g ai/ha; for pest or weed control at 15.625 g/ha / pest or weed control at 250 g/ha: read-out: Barnyardgrass damage rating (100=total damage to plant; 0=no damage to plant); for pest or weed control at 62.5 g/ha: 62.5 g ai/ha, 100=total damage to plant, 0=no damage to plant, read-out: Barnyardgrass damage rating; for pest or weed control at 250 g/ha: 250 g ai/ha
Summary of the method: (§1)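 Test compound in 0.5% Tween 20 acetone/water (50:50) was applied at three rates (15.625, 62.5, 250 g/ha) to soil sown one day earlier. After 13 days plants were scored for injury, where 0 means unaffected and 100 means completely damaged.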

corn (Zea mays) [2] = experiment: Test G Pre-Emergence Protocol; conditions: Zea mays, pre-emergence, 312 h, evaluated after 13 days; for plant injury at 15.625 g/ha: 15.625 g ai/ha; for plant injury at 15.625 g/ha / plant injury at 250 g/ha: read-out: Corn damage rating (100=total damage to plant; 0=no damage to plant); for plant injury at 62.5 g/ha: 62.5 g ai/ha, 100=total damage to plant, 0=no damage to plant, read-out: Corn damage rating; for plant injury at 250 g/ha: 250 g ai/ha
Summary of the method: as §1

[3] = test system: giant foxtail (Setaria faberi); experiment: Test G Pre-Emergence Protocol; conditions: Setaria faberi, pre-emergence, 312 h, evaluated after 13 days; for pest or weed control at 15.625 g/ha: 15.625 g ai/ha; for pest or weed control at 15.625 g/ha / pest or weed control at 250 g/ha: read-out: Foxtail, Giant damage rating (100=total damage to plant; 0=no damage to plant); for pest or weed control at 62.5 g/ha: 62.5 g ai/ha, 100=total damage to plant, 0=no damage to plant, read-out: Foxtail, Giant damage rating; for pest or weed control at 250 g/ha: 250 g ai/ha
Summary of the method: as §1

[4] = test system: ivy-leaved morning glory (Ipomoea hederacea); experiment: Test G Pre-Emergence Protocol; conditions: Ipomoea, pre-emergence, 312 h, evaluated after 13 days; for pest or weed control at 15.625 g/ha: 15.625 g ai/ha; for pest or weed control at 15.625 g/ha / pest or weed control at 250 g/ha: read-out: Morningglory, Ivy-leaved damage rating (100=total damage to plant; 0=no damage to plant); for pest or weed control at 62.5 g/ha: 62.5 g ai/ha, 100=total damage to plant, 0=no damage to plant, read-out: Morningglory, Ivy-leaved damage rating; for pest or weed control at 250 g/ha: 250 g ai/ha
Summary of the method: as §1

[5] = test system: redroot pigweed (Amaranthus retroflexus); experiment: Test G Pre-Emergence Protocol; conditions: Amaranthus retroflexus, pre-emergence, 312 h, evaluated after 13 days; for pest or weed control at 15.625 g/ha: 15.625 g ai/ha; for pest or weed control at 15.625 g/ha / pest or weed control at 250 g/ha: read-out: Pigweed, Redroot damage rating (100=total damage to plant; 0=no damage to plant); for pest or weed control at 62.5 g/ha: 62.5 g ai/ha, 100=total damage to plant, 0=no damage to plant, read-out: Pigweed, Redroot damage rating; for pest or weed control at 250 g/ha: 250 g ai/ha
Summary of the method: as §1

[6] = test system: velvetleaf (Abutilon theophrasti); experiment: Test G Pre-Emergence Protocol; conditions: Abutilon theophrasti, pre-emergence, 312 h, evaluated after 13 days; for pest or weed control at 15.625 g/ha: 15.625 g ai/ha; for pest or weed control at 15.625 g/ha / pest or weed control at 250 g/ha: read-out: Velvetleaf damage rating (100=total damage to plant; 0=no damage to plant); for pest or weed control at 62.5 g/ha: 62.5 g ai/ha, 100=total damage to plant, 0=no damage to plant, read-out: Velvetleaf damage rating; for pest or weed control at 250 g/ha: 250 g ai/ha
Summary of the method: as §1

[7] = test system: barnyardgrass (Echinochloa crus-galli); experiment: Test G Post-Emergence Protocol; conditions: Echinochloa crus-galli, post-emergence, 312 h, read-out: Barnyardgrass damage rating; for pest or weed control at 15.625 g/ha: 15.625 g ai/ha, evaluated after 13 days (100=total damage to plant; 0=no damage to plant); for pest or weed control at 62.5 g/ha: 62.5 g ai/ha; for pest or weed control at 62.5 g/ha / pest or weed control at 250 g/ha: evaluated after 13 days, 100=total damage to plant, 0=no damage to plant; for pest or weed control at 250 g/ha: 250 g ai/ha
Summary of the method: (§2)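 Scores run 0 (no damage) to 100 (total damage) and were taken 13 days after spraying. Plants had been raised in pots for 8 days under glasshouse control (24/16 °C, 14 h photoperiod, 65% humidity) and then treated at 15.625, 62.5 or 250 g/ha.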

corn (Zea mays) [8] = experiment: Test G Post-Emergence Protocol; conditions: Zea mays, post-emergence, 312 h, read-out: Corn damage rating; for plant injury at 15.625 g/ha: 15.625 g ai/ha, evaluated after 13 days (100=total damage to plant; 0=no damage to plant); for plant injury at 62.5 g/ha: 62.5 g ai/ha; for plant injury at 62.5 g/ha / plant injury at 250 g/ha: evaluated after 13 days, 100=total damage to plant, 0=no damage to plant; for plant injury at 250 g/ha: 250 g ai/ha
Summary of the method: as §2

[9] = test system: giant foxtail (Setaria faberi); experiment: Test G Post-Emergence Protocol; conditions: Setaria faberi, post-emergence, 312 h, read-out: Foxtail, Giant damage rating; for pest or weed control at 15.625 g/ha: 15.625 g ai/ha, evaluated after 13 days (100=total damage to plant; 0=no damage to plant); for pest or weed control at 62.5 g/ha: 62.5 g ai/ha; for pest or weed control at 62.5 g/ha / pest or weed control at 250 g/ha: evaluated after 13 days, 100=total damage to plant, 0=no damage to plant; for pest or weed control at 250 g/ha: 250 g ai/ha
Summary of the method: as §2

[10] = test system: ivy-leaved morning glory (Ipomoea hederacea); experiment: Test G Post-Emergence Protocol; conditions: Ipomoea, post-emergence, 312 h, read-out: Morningglory, Ivy-leaved damage rating; for pest or weed control at 15.625 g/ha: 15.625 g ai/ha, evaluated after 13 days (100=total damage to plant; 0=no damage to plant); for pest or weed control at 62.5 g/ha: 62.5 g ai/ha; for pest or weed control at 62.5 g/ha / pest or weed control at 250 g/ha: evaluated after 13 days, 100=total damage to plant, 0=no damage to plant; for pest or weed control at 250 g/ha: 250 g ai/ha
Summary of the method: as §2

[11] = test system: redroot pigweed (Amaranthus retroflexus); experiment: Test G Post-Emergence Protocol; conditions: Amaranthus retroflexus, post-emergence, 312 h, read-out: Pigweed, Redroot damage rating; for pest or weed control at 15.625 g/ha: 15.625 g ai/ha, evaluated after 13 days (100=total damage to plant; 0=no damage to plant); for pest or weed control at 62.5 g/ha: 62.5 g ai/ha; for pest or weed control at 62.5 g/ha / pest or weed control at 250 g/ha: evaluated after 13 days, 100=total damage to plant, 0=no damage to plant; for pest or weed control at 250 g/ha: 250 g ai/ha
Summary of the method: as §2

[12] = test system: velvetleaf (Abutilon theophrasti); experiment: Test G Post-Emergence Protocol; conditions: Abutilon theophrasti, post-emergence, 312 h, read-out: Velvetleaf damage rating; for pest or weed control at 15.625 g/ha: 15.625 g ai/ha, evaluated after 13 days (100=total damage to plant; 0=no damage to plant); for pest or weed control at 62.5 g/ha: 62.5 g ai/ha; for pest or weed control at 62.5 g/ha / pest or weed control at 250 g/ha: evaluated after 13 days, 100=total damage to plant, 0=no damage to plant; for pest or weed control at 250 g/ha: 250 g ai/ha
Summary of the method: as §2

| Structure (SMILES) | pest or weed control at 15.625 g/ha [1] | pest or weed control at 62.5 g/ha [1] | pest or weed control at 250 g/ha [1] | plant injury at 15.625 g/ha (corn (Zea mays) [2]) | plant injury at 62.5 g/ha (corn (Zea mays) [2]) | plant injury at 250 g/ha (corn (Zea mays) [2]) | pest or weed control at 15.625 g/ha [3] | pest or weed control at 62.5 g/ha [3] | pest or weed control at 250 g/ha [3] | pest or weed control at 15.625 g/ha [4] | pest or weed control at 62.5 g/ha [4] | pest or weed control at 250 g/ha [4] | pest or weed control at 15.625 g/ha [5] | pest or weed control at 62.5 g/ha [5] | pest or weed control at 250 g/ha [5] | pest or weed control at 15.625 g/ha [6] | pest or weed control at 62.5 g/ha [6] | pest or weed control at 250 g/ha [6] | pest or weed control at 15.625 g/ha [7] | pest or weed control at 62.5 g/ha [7] | also measured |
| --- | --- | --- | --- | --- | --- | --- | --- | --- | --- | --- | --- | --- | --- | --- | --- | --- | --- | --- | --- | --- | --- |
| CN1C[C@H](c2ccc(C(F)(F)F)cc2)[C@@H](C(=O)Nc2cncnc2Cl)C1=O (racemic) [Compound 1748] | 0% | 0% | 0% | 0% | 0% | 0% | 0% | 0% | 0% | 0% | 0% | 0% | 0% | 0% | 0% | 0% | 0% | 0% | 0% | 0% | pest or weed control at 250 g/ha [7]: 0%; plant injury at 15.625 g/ha (corn (Zea mays) [8]): 0%; plant injury at 62.5 g/ha (corn (Zea mays) [8]): 0%; plant injury at 250 g/ha (corn (Zea mays) [8]): 0%; pest or weed control at 15.625 g/ha [9]: 0%; pest or weed control at 62.5 g/ha [9]: 0%; pest or weed control at 250 g/ha [9]: 0%; pest or weed control at 15.625 g/ha [10]: 0%; pest or weed control at 62.5 g/ha [10]: 0%; pest or weed control at 250 g/ha [10]: 0%; pest or weed control at 15.625 g/ha [11]: 0%; pest or weed control at 62.5 g/ha [11]: 0%; pest or weed control at 250 g/ha [11]: 0%; pest or weed control at 15.625 g/ha [12]: 0%; pest or weed control at 62.5 g/ha [12]: 0%; pest or weed control at 250 g/ha [12]: 0% |
| COc1cc(F)cc(C2CN(C)C(=O)C2C(=O)Nc2cccc(F)c2F)c1 (stereo not drawn) [Compound 1699] | 60% | 80% | 90% | 0% | 30% | 70% | 80% | 90% | 90% | 0% | 10% | 70% | 0% | 0% | 0% | 0% | 0% | 0% | 60% | 80% | pest or weed control at 250 g/ha [7]: 90%; plant injury at 15.625 g/ha (corn (Zea mays) [8]): 0%; plant injury at 62.5 g/ha (corn (Zea mays) [8]): 30%; plant injury at 250 g/ha (corn (Zea mays) [8]): 70%; pest or weed control at 15.625 g/ha [9]: 80%; pest or weed control at 62.5 g/ha [9]: 80%; pest or weed control at 250 g/ha [9]: 80%; pest or weed control at 15.625 g/ha [10]: 10%; pest or weed control at 62.5 g/ha [10]: 30%; pest or weed control at 250 g/ha [10]: 70%; pest or weed control at 15.625 g/ha [11]: 0%; pest or weed control at 62.5 g/ha [11]: 0%; pest or weed control at 250 g/ha [11]: 30%; pest or weed control at 15.625 g/ha [12]: 0%; pest or weed control at 62.5 g/ha [12]: 0%; pest or weed control at 250 g/ha [12]: 30% |
